Results published in patent US20080287445A1, “Prokineticin 2 receptor antagonists” (priority 2005, published 2008).
“And” between values parts separate entries of the source, which are not always exact repeats. Equal values may be shown once.

Biological target: T1, GPR73 (prokineticin 1 receptor) (Homo sapiens, UniProt Q8TCW9)
T1 construct: expressed in transfected cells; host or cells: HEK 293
Test: PK1 functional assay: Ca2+ mobilization screening for PK1 antagonists on the FLIPR
Assay type: cell-based
Settings: HEK 293 GPR73 cells, multiple values = multiple testing; for Ca^2+ Mobilization % Inh @ 10 μM: 10 μM compound; for inhibition at 10 µM: HEK293, 10 μM compound, read-out: Ca^2+ Mobilization % Inh @ 10 μM; for IC50: PK1 ligand preparation at its EC50, read-out: Ca^2+ Mobilization IC50
Protocol: At a time of 24 h prior to running the assay, in cell culture media (DMEM containing high Glucose and L-glutamine, 10% FBS, 1% Pen/Streptomycin, 1% Sodium Pyruvate, 20 mM HEPES, Zeocin 200 mg/L), 100 μL of 1.3*10^6/ml HEK 293 GPR73 (prokineticin 1 receptor) expressing cells were plated in a 96 well poly-d-lysine coated plate (Costar), and incubated at 37 C and 5% CO2. On the day in which the assay was run, the media was removed and 200 μL of 5× Calcium Plus Dye (Molecular Devices) which was previously resuspended with 200 mL of assay buffer [HBSS w/Ca^2+ and Mg^2+ w/o phenol red, 20 mM HEPES, 0.1% BSA, 10 mL probenecid (710 mg probenecid in 5 mL of 1N NaOH, to which was then added 5 mL HBSS containing 20 mM HEPES)] was added to each well of the 96-well plate. The plate was incubated at 37 C and 5% CO2 for 30 min in dark. The plate was removed and allowed to reach RT for 15 min in the dark. The assay was then run on the FLIPR. In Brief: base line read for 1 min, compound added (25 μL) and incubated for 4 min, 15 seconds, PK1 ligand preparation added (25 μL) for a final concentration of a previously determined EC50 and fluorescence was counted for 1 min, 45 seconds. Baseline is described as the amount of relative fluorescence read when buffer alone is added to cells. Baseline was subtracted from all wells. Percent of control was calculated as follows:
(Baseline subtracted well value is divided by baseline subtracted max value)*100. Percent inhibition is 100 minus the percent of control value.
The IC50 is defined as the amount of a given compound required to inhibit 50% of the maximum signal that is generated by the concentration of PK1 preparation used in our assay. IC50 values were calculated using GraphPad Prism.

T1 sequence (Q8TCW9 whole entry, species assumed): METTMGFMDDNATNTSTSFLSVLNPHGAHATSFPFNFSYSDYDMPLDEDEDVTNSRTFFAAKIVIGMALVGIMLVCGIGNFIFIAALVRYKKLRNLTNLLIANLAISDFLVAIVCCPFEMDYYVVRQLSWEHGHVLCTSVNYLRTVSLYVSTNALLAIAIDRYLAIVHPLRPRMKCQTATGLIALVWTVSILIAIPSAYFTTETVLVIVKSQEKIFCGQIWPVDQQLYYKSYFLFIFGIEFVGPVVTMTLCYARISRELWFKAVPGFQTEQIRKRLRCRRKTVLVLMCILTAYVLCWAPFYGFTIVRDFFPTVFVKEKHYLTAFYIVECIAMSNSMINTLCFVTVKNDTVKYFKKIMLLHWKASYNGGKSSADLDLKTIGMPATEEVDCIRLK

Ca^2+ Mobilization % Inh @ 10 μM | inhibition at 10 µM [%] | IC50 | SMILES
100% | 91 | 24 nM and 72 nM | COCCNc1ncccc1CNc1nc(=O)n(Cc2ccc(OC)cc2)c(=O)n1Cc1ccc(OC)cc1 [Cpd 50]
– | 93 | 207 nM | COc1ccc(Cn2c(NCc3cccnc3NCCN(C)C)nc(=O)n(Cc3ccc(OC)cc3)c2=O)cc1 [Cpd 51]
– | 94 | 973 nM | COc1ccc(Cn2c(=O)nc(NCc3cccnc3N)n(Cc3ccc(C(N)=O)cc3)c2=O)cc1 [Cpd 52]
– | 45 | > 10000 nM | COc1ccc(Cn2c(NCc3ccc[n+]([O-])c3)nc(=O)n(Cc3ccc(OC)cc3)c2=O)cc1 [Cpd 53]
42% and 64% | – | 3470 nM and > 10000 nM | COc1ccc(Cn2c(NCc3cccnc3N)nc(=O)n(Cc3ccc(O)cc3)c2=O)cc1 [Cpd 54, 6-[(2-Amino-pyridin-3-ylmethyl)-amino]-3-(4-hydroxy-benzyl)-1-(4-methoxy-benzyl)-1H-[1,3,5]triazine-2,4-dione]
– | 44 | > 10000 nM | COc1ccc(Cn2c(NCc3cccnc3N)nc(=O)n(Cc3cccc(F)c3)c2=O)cc1 [Cpd 55]
– | 47 | > 10000 nM | COC(=O)c1ccc(Cn2c(=O)nc(NCc3cccnc3N)n(Cc3ccc(OC)cc3)c2=O)cc1 [Cpd 56]
– | 59 | 4770 nM | COc1ccc(Cn2c(NCc3cc(-c4ccccc4)cnc3N)nc(=O)n(Cc3ccc(OC)cc3)c2=O)cc1 [Cpd 57]
– | 95 | 89 nM | COc1ccc(Cn2c(NCc3c(OC)ccnc3N)nc(=O)n(Cc3ccc(OC)cc3)c2=O)cc1 [Cpd 58]
– | 94 | 178 nM | COc1ccc(Cn2c(NCc3ccc(C)nc3)nc(=O)n(Cc3ccc(OC)cc3)c2=O)cc1 [Cpd 59]
– | 88 | 350 nM | COc1ccc(Cn2c(NCc3cnc(C)cc3C)nc(=O)n(Cc3ccc(F)cc3)c2=O)cc1 [Cpd 60]
101% | 87 | – | COc1ccc(Cn2c(NCc3cnc(C)cc3C)cc(=O)n(Cc3ccc(OC)cc3)c2=O)cc1 [Cpd 61]
– | 52 | 2030 nM | COc1ccc(Cn2c(NCc3cc(C)ccn3)nc(=O)n(Cc3ccc(OC)cc3)c2=O)cc1 [Cpd 62]
– | 83 | 271 nM | CCc1ccc(Cn2c(NCc3cccnc3N)nc(=O)n(Cc3ccc(OC)cc3)c2=O)cc1 [Cpd 63]
51% | 50 | 5260 nM and 8510 nM | COc1ccc(Cn2c(NCc3cccc(C(F)(F)F)n3)nc(=O)n(Cc3ccc(OC)cc3)c2=O)cc1 [Cpd 64]
– | – | > 10000 nM | COc1ccc(Cn2c(NCc3ncccc3C)nc(=O)n(Cc3ccc(OC)cc3)c2=O)cc1 [Cpd 65]
– | 92 | 401 nM | COc1ccc(Cn2c(NCc3cccnc3NCCSC)nc(=O)n(Cc3ccc(OC)cc3)c2=O)cc1 [Cpd 66]
– | 55 | 4820 nM | COc1ccc(Cn2c(NCc3cccnc3NCCC(C)C)nc(=O)n(Cc3ccc(OC)cc3)c2=O)cc1 [Cpd 67]
– | 95 | 217 nM | COc1ccc(Cn2c(NCc3cccnc3NCC3CCCO3)nc(=O)n(Cc3ccc(OC)cc3)c2=O)cc1 (centres unmarked) [Cpd 68]
– | 93 | 337 nM | COc1ccc(Cn2c(NCc3cccnc3NCc3ccco3)nc(=O)n(Cc3ccc(OC)cc3)c2=O)cc1 [Cpd 69]
– | 94 | 560 nM | CCN1CCCC1CNc1ncccc1CNc1nc(=O)n(Cc2ccc(OC)cc2)c(=O)n1Cc1ccc(OC)cc1 (centres unmarked) [Cpd 70]
– | 38 | > 10000 nM | COCCNc1ncccc1CNc1nc(=O)n(CCc2ccccc2)c(=O)n1Cc1ccc(OC)cc1 [Cpd 71]
– | 81 | 1170 nM | COCCNc1ncccc1CNc1nc(=O)n(CCOc2ccccc2)c(=O)n1Cc1ccc(OC)cc1 [Cpd 72]
– | 58 | 5930 nM | COCCNc1ncccc1CNc1nc(=O)n(CC2COc3ccccc3O2)c(=O)n1Cc1ccc(OC)cc1 (centres unmarked) [Cpd 73]
– | 54 | 7460 nM | COCCNc1ncccc1CNc1nc(=O)n(CCc2ccc([N+](=O)[O-])cc2)c(=O)n1Cc1ccc(OC)cc1 [Cpd 74]
– | 99 | 131 nM | COc1ccc(Cn2c(=O)nc(NCc3cccnc3N)n(Cc3ccc(SC)cc3)c2=O)cc1 [Cpd 75]

Ca^2+ Mobilization % Inh @ 10 μM | inhibition at 10 µM [%] | IC50 | SMILES
– | 67 | 1460 nM | COc1ccc(Cn2c(=O)nc(NCc3cccnc3N)n(Cc3ccncc3)c2=O)cc1 [Cpd 76]
– | 91 | 449 nM | COc1ccc(Cn2c(=O)nc(NCc3cccnc3N)n(Cc3cc4ccccc4o3)c2=O)cc1 [Cpd 77]
95% | 94 | 36 nM and 113 nM | COCCCCCn1c(NCc2cccnc2N)nc(=O)n(Cc2ccc(OC)cc2)c1=O [Cpd 78, 6-[(2-Amino-pyridin-3-ylmethyl)-amino]-3-(4-methoxy-benzyl)-1-(5-methoxy-pentyl)-1H-[1,3,5]triazine-2,4-dione]
– | 85 | 679 nM | CCCCCCn1c(NCc2cccnc2N)nc(=O)n(Cc2ccc(OC)cc2)c1=O [Cpd 79]
– | 70 | 2030 nM | COc1ccc(Cn2c(=O)nc(NCc3cccnc3N)n(Cc3cccc(OC)c3)c2=O)cc1 [Cpd 80]
– | 36 | > 10000 nM | COc1ccc(Cn2c(=O)nc(NCc3cccnc3N)n(Cc3cccc(C#N)c3)c2=O)cc1 [Cpd 81]
– | 38 | > 10000 nM | COc1ccc(Cn2c(=O)nc(NCc3cccnc3N)n(Cc3cccc([N+](=O)[O-])c3)c2=O)cc1 [Cpd 82]
– | 82 | 668 nM | COc1ccc(Cn2c(NCc3cnc(C)cc3C)nc(=O)n(Cc3ccc(OC(F)F)cc3)c2=O)cc1 [Cpd 83]
– | 70 | 1220 nM | COc1ccc(Cn2c(NCc3cccnc3N)nc(=O)n(Cc3ccc(OC(F)F)cc3)c2=O)cc1 [Cpd 84]
– | 31 | > 10000 nM | CCc1ccccc1Cn1c(NCc2cccnc2N)nc(=O)n(Cc2ccc(OC)cc2)c1=O [Cpd 86]
– | 53 | > 10000 nM | COc1ccc(Cn2c(=O)nc(NCc3cccnc3N)n(Cc3ccccc3OC(F)(F)F)c2=O)cc1 [Cpd 87]
– | 41 | > 10000 nM | COc1ccc(Cn2c(=O)nc(NCc3cccnc3N)n(Cc3ccccc3C#N)c2=O)cc1 [Cpd 88]
– | 82 | 817 nM | COc1ccc(Cn2c(NCc3cccnc3N)nc(=O)n(Cc3ccc(I)cc3)c2=O)cc1 [Cpd 89]
– | 71 | 2330 nM | COc1ccc(Cn2c(NCc3cccnc3N)nc(=O)n(Cc3ccc(-n4cccn4)cc3)c2=O)cc1 [Cpd 90]
– | 59 | 3980 nM | Nc1ncccc1CNc1nc(=O)n(Cc2ccc(F)cc2)c(=O)n1Cc1ccc(OC(F)(F)F)cc1 [Cpd 91]
– | 58 | 5160 nM | COc1ccc(Cn2c(=O)nc(NCc3cccnc3N)n(Cc3ccccc3OC)c2=O)cc1 [Cpd 92]
– | 96 | 116 nM | COC(=O)c1cccc(Cn2c(NCc3cccnc3N)nc(=O)n(Cc3ccc(OC)cc3)c2=O)c1 [Cpd 93]
– | 91 | 373 nM | COc1ccc(CCn2c(NCc3cccnc3N)nc(=O)n(Cc3ccc(OC)cc3)c2=O)cc1 [Cpd 94]
– | 92 | 84 nM | COc1ccc(Cn2c(=O)nc(NCc3cccnc3N)n(Cc3ccc(OC)nc3)c2=O)cc1 [Cpd 95]
– | – | 273 nM | COc1ccc(Cn2c(=O)nc(NCc3cnc(C)cc3C)n(Cc3ccc(OC(F)F)cc3)c2=O)cc1 [Cpd 96]
96% and 98% | 90 | 6 nM and 7 nM and 19 nM | COc1ccc(Cn2c(NCc3c(C)cc(C)nc3N)nc(=O)n(Cc3ccc(OC)cc3)c2=O)cc1 [Cpd 97, 6-[(2-Amino-4,6-dimethyl-pyridin-3-ylmethyl)-amino]-1,3-bis-(4-methoxy-benzyl)-1H-[1,3,5]triazine-2,4-dione]
– | 77 | 736 nM | COc1ccc(Cn2c(=O)nc(NCc3cccnc3N)n(Cc3cccc(OC(F)(F)F)c3)c2=O)cc1 [Cpd 98]
– | 91 | 100 nM | COc1ccc(Cn2c(=O)nc(NCc3cnc(C)cc3C)n(Cc3cccc(OC(F)(F)F)c3)c2=O)cc1 [Cpd 99]
– | 62 | 533 nM | COc1ccc(Cn2c(=O)nc(NCc3cnc(C)cc3C)n(Cc3ccc(SC)cc3)c2=O)cc1 [Cpd 100]
– | 60 | 3300 nM | COc1ccc(Cn2c(=O)nc(NCc3cnc(C)cc3C)n(Cc3ccncc3)c2=O)cc1 [Cpd 101]
